Data published in ChEMBL document CHEMBL1159348, “S(R)-podolactone D, a new sulfoxide-containing norditerpene dilactone from Podocarpus macrophyllus var. maki” (J Nat Prod, 2003).
Values after ≈ are worked out from the molar mass of the structure shown.

Tested on: P388
Assay: Cytotoxicity against mouse P388 cells
Assay type: functional, cell-based

Structure (SMILES)	IC50
C[S@+]([O-])C[C@](C)(O)[C@H]1OC(=O)C=C2[C@@]13O[C@@H]3[C@H]1OC(=O)[C@@]3(C)C=CC[C@@]2(C)[C@@H]13 (stereo in doubt; 1)	0.52 µg/mL (≈ 1.27 µM)
C[S@+]([O-])C[C@](C)(O)[C@H]1OC(=O)C=C2[C@@]13O[C@@H]3[C@H]1OC(=O)[C@@]3(C)C=CC[C@@]2(C)[C@@H]13 (stereo in doubt; 2)	0.23 µg/mL (≈ 0.563 µM)
